In the CheMixHub viscosity set:

Test: xn = mol fraction of the nth substance listed

C=CC#N + C1CCCCC1
307.4 K, 101.33 kPa
Details	viscosity [mPa·s]
x2 = 0.0861	0.66
x2 = 0.2848	0.53
x2 = 0.5332	0.419
x2 = 0.544	0.396
x2 = 0.7114	0.359
x2 = 0.8989	0.318

CCCCN(CCCC)CCCC + C1CCCCC1
viscosity [mPa·s], 101 kPa
Details	303.15 K	313.15 K
x1 = 0.0103	0.8168	0.7154
x1 = 0.0216	0.816	0.7139
x1 = 0.03178	0.8153	0.7132
x1 = 0.04023	0.8141	0.7121
x1 = 0.05159	0.8132	0.7111
x1 = 0.05978	0.8121	0.7102
x1 = 0.0709	0.8113	0.709
x1 = 0.0807	0.81	0.7078
x1 = 0.08607	0.8086	0.7065
x2 = 0.1133	1.125	–
x2 = 0.1972	1.125	–
x2 = 0.402	1.021	–
x2 = 0.499	0.987	–
x2 = 0.5952	0.951	–
x2 = 0.7042	0.911	–
x2 = 0.8018	0.875	–
x2 = 0.9005	0.845	–

CC(C)(C)Cl + C1CCOC1
101 kPa
Details	viscosity [mPa·s]
298.15 K, x2 = 0.0634	0.4743
298.15 K, x2 = 0.1288	0.4733
298.15 K, x2 = 0.2423	0.4718
298.15 K, x2 = 0.3198	0.4705
298.15 K, x2 = 0.4555	0.4684
298.15 K, x2 = 0.5341	0.4673
298.15 K, x2 = 0.6598	0.4656
298.15 K, x2 = 0.7441	0.4647
298.15 K, x2 = 0.8407	0.4639
298.15 K, x2 = 0.8916	0.4636
298.15 K, x2 = 0.961	0.4633
313.15 K, x2 = 0.0557	0.3913
313.15 K, x2 = 0.0959	0.3917
313.15 K, x2 = 0.1963	0.3928
313.15 K, x2 = 0.296	0.3935
313.15 K, x2 = 0.3892	0.394
313.15 K, x2 = 0.521	0.3945
313.15 K, x2 = 0.5951	0.3946
313.15 K, x2 = 0.6368	0.3947
313.15 K, x2 = 0.8089	0.3951
313.15 K, x2 = 0.9009	0.3959
313.15 K, x2 = 0.9526	0.3968

CC(C)(N)CO + C1CNCCN1
viscosity [mPa·s], 101 kPa
Details	x2 = 0.02	x2 = 0.04	x2 = 0.06	x2 = 0.08	x2 = 0.1	x2 = 0.12	x2 = 0.14	x2 = 0.16	x2 = 0.18
303.15 K	95.41	91.27	86.75	83	79.54	76.81	74.64	71.81	71
313.15 K	43.72	41.54	38.97	37.34	36.06	35.06	34.1	33.76	33.69
323.15 K	24.41	23.46	22.58	21.64	20.53	19.63	18.74	17.8	17.07

[2H]O[2H] + C1COCCO1
viscosity [mPa·s], 101 kPa
Details	303.1 K	313.1 K	323.1 K
x1 = 0.1561	1.112	0.944	0.817
x1 = 0.1831	1.154	0.972	0.831
x1 = 0.3467	1.317	1.092	0.918
x1 = 0.522	1.585	1.289	1.06
x1 = 0.5977	1.728	1.378	1.128
x1 = 0.6534	1.836	1.447	1.172
x1 = 0.7431	1.968	1.529	1.233
x1 = 0.8126	1.959	1.52	1.213
x1 = 0.8683	1.754	1.367	1.098
x1 = 0.9108	1.528	1.199	0.97
x1 = 0.9466	1.321	1.047	0.853
x1 = 0.9747	1.131	0.905	0.742

CCCCC(C)CC (configuration not stated) + C1C[C@@H]2[C@H]3CC[C@H](C3)[C@@H]2C1
viscosity [mPa·s], 100 kPa
Details	x2 = 0.0994	x2 = 0.2004	x2 = 0.2996	x2 = 0.4001	x2 = 0.5008	x2 = 0.5973	x2 = 0.6998	x2 = 0.8016	x2 = 0.8999
293.15 K	0.577	0.657	0.755	0.882	1.044	1.249	1.521	1.882	2.336
298.15 K	0.547	0.62	0.708	0.824	0.971	1.154	1.399	1.722	2.125
303.15 K	0.519	0.589	0.667	0.772	0.905	1.065	1.294	1.585	1.945
308.15 K	0.495	0.557	0.63	0.726	0.848	1	1.201	1.457	1.788
313.15 K	0.472	0.53	0.597	0.685	0.796	0.935	1.118	1.357	1.65

CCCCN(CCCC)CCCC + C=C(C)C(=O)OC
303.15 K, 101 kPa
Details	viscosity [mPa·s]
x2 = 0.21	0.9849
x2 = 0.3945	0.8491
x2 = 0.4886	0.7874
x2 = 0.6041	0.7144
x2 = 0.7985	0.6078

COC(C)OC + CC1COC(=O)O1
298.15 K, 101 kPa
Details	viscosity [mPa·s]
x2 = 0.1205	4.91
x2 = 0.2621	6.2
x2 = 0.3779	7.53
x2 = 0.4836	9.05
x2 = 0.7185	13.82

C=CC#N + CC#N
303.15 K, 101.3 kPa
Details	viscosity [mPa·s]
x1 = 0.0965	0.3219
x1 = 0.2002	0.3193
x1 = 0.2977	0.3185
x1 = 0.3966	0.3178
x1 = 0.4928	0.3169
x1 = 0.5983	0.3154
x1 = 0.6941	0.3147
x1 = 0.7977	0.3136
x1 = 0.8997	0.3124

CCC(C)(C)O + CC#N
298.15 K, 101 kPa
Details	viscosity [mPa·s]
x1 = 0.1002	0.387
x1 = 0.1989	0.45
x1 = 0.2988	0.543
x1 = 0.3988	0.667
x1 = 0.4964	0.832
x1 = 0.6004	1.069
x1 = 0.6969	1.375
x1 = 0.7994	1.832
x1 = 0.8983	2.493
x1 = 0.958	3.032

CN(C)c1ccccc1 + CC(=O)CC(C)C
viscosity [mPa·s], 101 kPa
Details	303.15 K	308.15 K
x1 = 0.0745	0.632	0.557
x1 = 0.1256	0.711	0.628
x1 = 0.1856	0.8	0.711
x1 = 0.2652	0.906	0.813
x1 = 0.3202	0.971	0.875
x1 = 0.4012	1.052	0.953
x1 = 0.4852	1.108	1.013
x1 = 0.5612	1.143	1.049
x1 = 0.6504	1.165	1.072
x1 = 0.7214	1.167	1.079
x1 = 0.7958	1.168	1.079
x1 = 0.8625	1.169	1.081
x1 = 0.9125	1.17	1.086

C=CC#N + CC(=O)N(C)C
303.15 K, 101.3 kPa
Details	viscosity [mPa·s]
x1 = 0.0998	0.8246
x1 = 0.1982	0.7637
x1 = 0.297	0.7048
x1 = 0.3941	0.6449
x1 = 0.5009	0.5797
x1 = 0.5995	0.5228
x1 = 0.6984	0.4682
x1 = 0.7976	0.4132
x1 = 0.9005	0.3591

CN(C)c1ccccc1 + CC(=O)O
viscosity [mPa·s], 101 kPa
Details	x2 = 0.1008	x2 = 0.201	x2 = 0.3424	x2 = 0.3973	x2 = 0.4957	x2 = 0.5978	x2 = 0.7002	x2 = 0.7928	x2 = 0.8476	x2 = 0.9025
298.15 K	1.363	1.448	1.644	1.757	2.04	2.547	3.352	4.244	4.514	3.819
318.15 K	0.9835	1.02	1.106	1.16	1.281	1.488	1.831	2.192	2.327	2.085

C=CC#N + CC(=O)c1ccccc1
308.15 K, 101 kPa
Details	viscosity [mPa·s]
x2 = 0.0582	0.3608
x2 = 0.1109	0.3946
x2 = 0.1957	0.4532
x2 = 0.2736	0.5132
x2 = 0.3939	0.62
x2 = 0.4591	0.676
x2 = 0.5681	0.7844
x2 = 0.6945	0.9222
x2 = 0.7954	1.052

CN(C)c1ccccc1 + CC(=O)c1ccccc1
viscosity [mPa·s], 101 kPa
Details	303.15 K	308.15 K
x1 = 0.0856	1.505	1.398
x1 = 0.1502	1.495	1.387
x1 = 0.2141	1.48	1.376
x1 = 0.2852	1.461	1.361
x1 = 0.3521	1.442	1.346
x1 = 0.4201	1.42	1.328
x1 = 0.5026	1.392	1.305
x1 = 0.5892	1.362	1.279
x1 = 0.6625	1.335	1.254
x1 = 0.7211	1.313	1.234
x1 = 0.7908	1.284	1.207
x1 = 0.8625	1.253	1.177
x1 = 0.9204	1.222	1.151

CC(C)(C)Br + CC(C)(C)O
viscosity [mPa·s], 101.3 kPa
Details	x1 = 0.1003	x1 = 0.2034	x1 = 0.3015	x1 = 0.4024	x1 = 0.5028	x1 = 0.6049	x1 = 0.705	x1 = 0.7981	x1 = 0.8958
298.15 K	2.648	1.858	1.458	1.208	1.026	0.9136	0.8363	0.7868	0.7483
313.15 K	1.504	1.165	0.9832	0.8491	0.7568	0.6855	0.6408	0.6119	0.595

CN(C)c1ccccc1 + CC(C)(C)O
303.15 K, 101 kPa
Details	viscosity [mPa·s]
x1 = 0.0534	3.315
x1 = 0.1054	3.242
x1 = 0.1689	3.141
x1 = 0.2256	3.041
x1 = 0.2958	2.907
x1 = 0.3612	2.775
x1 = 0.4502	2.587
x1 = 0.5246	2.423
x1 = 0.6589	2.112
x1 = 0.7421	1.908
x1 = 0.8046	1.747
x1 = 0.8645	1.584
x1 = 0.9472	1.34
